Test results from patent US9113629B2, “4-amino-6-(4-substituted-phenyl)-picolinates and 6-amino-2-(4-substituted-phenyl)-pyrimidine-4-carboxylates and their use as herbicides” (DOW AGROSCIENCES LLC, priority 2013, dated 2015).
Read-outs that look alike come from different tables or passages of the source.

Experiments:
[1] = test system: Key Broadleaf Weed and Crop Species; test: Post-emergent Test II herbicidal activity (Table 5); assay type: in vivo; details: post-emergence, 336 h, 14 days after application; for pest or weed control at 70 g/ha: application rate 70 g ai/ha; for pest or weed control at 140 g/ha: application rate 140 g ai/ha
Summary of the method: (§1)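 Greenhouse-grown plants at first or second true leaf stage were sprayed post-emergence with compound in acetone/DMSO-based aqueous spray containing crop oil concentrate and surfactant, at 187 L/ha, highest rate plus ½× to 1/16× dilutions. After 14 d, injury was scored visually versus untreated plants, 0 (none) to 100% (complete kill).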

[2] = test system: Key Grass and Sedge Weeds as well as Grass Crops; test: Post-emergent Test II herbicidal activity (Table 6); assay type: in vivo; details: post-emergence, 336 h; for pest or weed control at 70 g/ha: 70 g ai/ha; for pest or weed control at 140 g/ha: 140 g ai/ha
Summary of the method: as §1

[3] = ABUTH: velvetleaf (Abutilon theophrasti), read-out: Visual Growth Reduction (%) 14 Days After Application, ABUTH
[4] = AMARE: redroot pigweed (Amaranthus retroflexus), read-out: Visual Growth Reduction (%) 14 Days After Application, AMARE
[5] = BRSNN: oilseed-rape, canola (Brassica napus), read-out: Visual Growth Reduction (%) 14 Days After Application, BRSNN
[6] = CHEAL: lambsquarters (Chenopodium album), read-out: Visual Growth Reduction (%) 14 Days After Application, CHEAL
[7] = EPHHL: wild poinsettia (Euphorbia heterophylla), read-out: Visual Growth Reduction (%) 14 Days After Application, EPHHL
[8] = HELAN: sunflower (Helianthus annuus), read-out: Visual Growth Reduction (%) 14 Days After Application, HELAN
[9] = VIOTR: wild pansy (Viola tricolor), read-out: Visual Growth Reduction (%) 14 Days After Application, VIOTR
[10] = CYPES: yellow nutsedge (Cyperus esculentus), read-out: Visual Growth Reduction (%) 14 Days After Application, CYPES
[11] = DIGSA: crabgrass (Digitaria sanguinalis), read-out: Visual Growth Reduction (%) 14 Days After Application, DIGSA
[12] = ECHCG: barnyardgrass (Echinochloa crus-galli), read-out: Visual Growth Reduction (%) 14 Days After Application, ECHCG
[13] = ORYSA: rice (Oryza sativa), crop, read-out: Visual Growth Reduction (%) 14 Days After Application, ORYSA
[14] = SETFA: giant foxtail (Setaria faberi), read-out: Visual Growth Reduction (%) 14 Days After Application, SETFA
[15] = SORVU: grain sorghum (Sorghum vulgare), read-out: Visual Growth Reduction (%) 14 Days After Application, SORVU
[16] = TRZSS (wheat, Triticum aestivum), crop, read-out: Visual Growth Reduction (%) 14 Days After Application, TRZSS
[17] = ZEAMX: maize, corn (Zea mays), crop, read-out: Visual Growth Reduction (%) 14 Days After Application, ZEAMX

Nc1c(F)c(-c2ccc(I)cc2)nc(C(=O)O)c1Cl [Compound 45, 4-amino-3-chloro-5-fluoro-6-(4-iodophenyl)picolinic acid]
pest or weed control at 70 g/ha [1, 3]: 95 to 100% | pest or weed control at 140 g/ha [1, 3]: 95 to 100% | pest or weed control at 70 g/ha [1, 4]: 95 to 100% | pest or weed control at 140 g/ha [1, 4]: 95 to 100% | pest or weed control at 70 g/ha [1, 5]: 95 to 100% | pest or weed control at 140 g/ha [1, 5]: 95 to 100% | pest or weed control at 70 g/ha [1, 6]: 95 to 100% | pest or weed control at 140 g/ha [1, 6]: 95 to 100% | pest or weed control at 70 g/ha [1, 7]: 95 to 100% | pest or weed control at 140 g/ha [1, 7]: 95 to 100% | pest or weed control at 70 g/ha [1, 8]: 95 to 100% | pest or weed control at 140 g/ha [1, 8]: 95 to 100% | pest or weed control at 70 g/ha [1, 9]: 85 to 94% | pest or weed control at 140 g/ha [1, 9]: 95 to 100% | pest or weed control at 70 g/ha [2, 10]: 85 to 94% | pest or weed control at 140 g/ha [2, 10]: 95 to 100% | pest or weed control at 70 g/ha [2, 11]: 85 to 94% | pest or weed control at 140 g/ha [2, 11]: 85 to 94% | pest or weed control at 70 g/ha [2, 12]: 95 to 100% | pest or weed control at 140 g/ha [2, 12]: 95 to 100% | pest or weed control at 70 g/ha [2, 13]: 45 to 59% | pest or weed control at 140 g/ha [2, 13]: 60 to 74% | pest or weed control at 70 g/ha [2, 14]: 85 to 94% | pest or weed control at 140 g/ha [2, 14]: 85 to 94% | pest or weed control at 70 g/ha [2, 15]: 60 to 74% | pest or weed control at 140 g/ha [2, 15]: 95 to 100% | pest or weed control at 70 g/ha [2, 16]: 60 to 74% | pest or weed control at 140 g/ha [2, 16]: 75 to 84% | pest or weed control at 70 g/ha [2, 17]: 85 to 94% | pest or weed control at 140 g/ha [2, 17]: 95 to 100%
